Measured values from patent US9708336B2, “Metallo-beta-lactamase inhibitors” (priority 2014, dated 2017).
Read-outs that look alike come from different tables or passages of the source.

Tests used:
[1] = tested on: Serratia marcescens expressing IMP-1 (CL5741); assay: Antibiotic potentiation activity: synergistic concentration (MITC95) with imipenem, OD600 growth; format: cell-based; conditions: Serratia marcescens CL5741 (IMP-1), 95% growth inhibition
In short: (§1)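 Compound activity is tested with and without imipenem, which is present at 4 μg/ml (or 1 μg/ml) in the well. Bacteria in 1.1× CAMHB are incubated 22–24 h at 35 °C; absorbance gives the growth endpoint.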

[2] = tested on: Klebsiella pneumoniae expressing VIM-1 (IHMA599644); assay: as above; format: cell-based; conditions: Klebsiella pneumoniae IHMA599644 (VIM-1), 95% growth inhibition
In short: as §1

[3] = tested on: Escherichia coli expressing NDM-1 (CLB30016); assay: as above; format: cell-based; conditions: (CLB30016, NDM-1), 95% growth inhibition
In short: as §1

[4] = target: NDM-1 (Klebsiella pneumoniae, UniProt C7C422); assay: biochemical; format: biochemical; conditions: NDM-1 enzyme, CCF2-FA substrate; read-out: NDM-1 IC50
[5] = target: IMP-1 (Serratia marcescens, UniProt P52699); assay: biochemical; format: biochemical; conditions: IMP-1 enzyme, CCF2-FA substrate; read-out: IMP-1 IC50
[6] = target: VIM-1 (Pseudomonas aeruginosa (strain ATCC 15692 / DSM 22644 / CIP 104116 / JCM 14847 / LMG 12228 / 1C / PRS 101 / PAO1), UniProt A0A0F7KYQ8); assay: Enzyme activity: determination of IC50, fluorescence assay with CCF2-FA substrate (VIM-1); format: biochemical; conditions: CCF2-FA substrate
[7] = VIM-1 enzyme, read-out: VIM-1 IC50

Sequence of NDM-1 (C7C422 whole entry, looked up, species assumed): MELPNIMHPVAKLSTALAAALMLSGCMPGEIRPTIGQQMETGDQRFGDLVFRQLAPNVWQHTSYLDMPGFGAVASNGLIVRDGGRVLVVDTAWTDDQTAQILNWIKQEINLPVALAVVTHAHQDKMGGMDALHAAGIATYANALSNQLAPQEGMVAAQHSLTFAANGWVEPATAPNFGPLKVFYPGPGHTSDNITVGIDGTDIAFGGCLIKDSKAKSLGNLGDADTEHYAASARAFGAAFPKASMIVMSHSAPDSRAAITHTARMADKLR
Sequence of IMP-1 (P52699 whole entry, looked up): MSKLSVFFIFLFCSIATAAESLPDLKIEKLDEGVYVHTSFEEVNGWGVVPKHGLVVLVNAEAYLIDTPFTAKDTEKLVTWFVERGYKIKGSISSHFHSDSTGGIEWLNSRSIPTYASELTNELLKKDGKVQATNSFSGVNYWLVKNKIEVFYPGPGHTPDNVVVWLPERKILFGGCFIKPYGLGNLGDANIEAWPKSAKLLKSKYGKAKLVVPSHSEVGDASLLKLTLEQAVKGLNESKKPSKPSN

Compound | Serratia marcescens MITC95 [1] | Klebsiella pneumoniae MITC95 [2] | Escherichia coli MITC95 [3] | IC50 [4] | IC50 [5] | IC50 [6, 7] | IC50 ([6]; VIM-1 IC50, VIM-1 enzyme)
NS(=O)(=O)c1c(C(F)(F)F)ccc(-c2cccc(N3CCNCC3)c2)c1-c1nnn[nH]1 [Example 723, 3′-piperazin-1-yl-2-(1H-tetrazol-5-yl)-4-(trifluoromethyl)biphenyl-3-sulfonamide] | 25 µM | 12.5 µM | 6.25 µM | 7.78 nM | 17.2 nM | 1.26 nM | 
NS(=O)(=O)c1c(C(F)(F)F)ccc(-c2cccc3c2OCCN3)c1-c1nnn[nH]1 [Example 724, 3-(3,4-dihydro-2H-1,4-benzoxazin-8-yl)-2-(1H-tetrazol-5-yl)-6-(trifluoromethyl)benzenesulfon-amide] | 6.25 µM | 12.5 µM | 6.25 µM | 1.15 nM | 2.44 nM | 0.862 nM | 
CC(CO)(CO)c1ccc(-c2ccc(C(F)(F)F)c(S(N)(=O)=O)c2-c2nnn[nH]2)cc1 [Example 725, 4′-[2-hydroxy-1-(hydroxymethyl)-1-methylethyl]-2-(1H-tetrazol-5-yl)-4-(trifluoromethyl)biphenyl-3-sulfonamide] | 6.25 µM | 25 µM | 12.5 µM | 0.767 nM | 0.92 nM | 1.27 nM | 
CNC1CCc2c(-c3ccc(C(F)(F)F)c(S(N)(=O)=O)c3-c3nnn[nH]3)cccc21 (stereo not drawn) [Example 726, 3-[1-(methylamino)-2,3-dihydro-1H-inden-4-yl]-2-(1H-tetrazol-5-yl)-6-(trifluoromethyl)benzenesulfon-amide] | 25 µM | 3.125 µM | 12.5 µM | 26.8 nM | 58.9 nM | 1.21 nM | 
N[C@@H]1CCCN(c2ccc(-c3ccc(C(F)(F)F)c(S(N)(=O)=O)c3-c3nnn[nH]3)cc2)C1 [Example 727, 4′-[(3R)-3-aminopiperidin-1-yl]-2-(1H-tetrazol-5-yl)-4-(trifluoromethyl)biphenyl-3-sulfonamide] | 3.125 µM | 25 µM | 3.125 µM | 2.13 nM | 1.97 nM | 0.914 nM | 
NC1(c2ccc(-c3ccc(C(F)(F)F)c(S(N)(=O)=O)c3-c3nnn[nH]3)cc2)CC(O)C1 (stereo not drawn) [Example 728, 4′-(1-amino-3-hydroxycyclobutyl)-2-(1H-tetrazol-5-yl)-4-(trifluoromethyl)biphenyl-3-sulfonamide] | 6.25 µM | 25 µM | 3.125 µM | 2.58 nM | 4.16 nM |  | 4 nM
NC1(c2ccc(-c3ccc(C(F)(F)F)c(S(N)(=O)=O)c3-c3nnn[nH]3)cc2)CCCC1 [Example 729, 4′-(1-aminocyclopentyl)-2-(1H-tetrazol-5-yl)-4-(trifluoromethyl)biphenyl-3-sulfonamide] | 6.25 µM | 25 µM | 6.25 µM | 4.85 nM | 6.97 nM | 7.37 nM | 
NC1(c2ccc(-c3ccc(C(F)(F)F)c(S(N)(=O)=O)c3-c3nnn[nH]3)cc2)CCOC1 (stereo not drawn) [Example 730, 4′-(3-aminotetrahydrofuran-3-yl)-2-(1H-tetrazol-5-yl)-4-(trifluoromethyl)biphenyl-3-sulfonamide] | 3.125 µM | 50 µM | 3.125 µM | 2.8 nM | 3.57 nM | 6 nM | 
NC1CCCc2ccc(-c3ccc(C(F)(F)F)c(S(N)(=O)=O)c3-c3nnn[nH]3)cc21 (stereo not drawn) [Example 731, 3-(8-amino-5,6,7,8-tetrahydronaphthalen-2-yl)-2-(1H-tetrazol-5-yl)-6-(trifluoromethyl)benzenesulfon-amide] | 50 µM | 50 µM | 25 µM | 61.3 nM | 117 nM |  | 22.1 nM
Nc1nc(-c2ccc(-c3ccc(C(F)(F)F)c(S(N)(=O)=O)c3-c3nnn[nH]3)cc2)cs1 [Example 732, 4′-(2-amino-1,3-thiaozl-4-yl)-2-(1H-tetrazol-5-yl)-4-(trifluoromethyl)biphenyl-3-sulfonamide] | 3.125 µM | 25 µM | 0.7813 µM | 0.534 nM | 0.384 nM | 0.69 nM | 
NCC1COc2ccc(-c3ccc(C(F)(F)F)c(S(N)(=O)=O)c3-c3nnn[nH]3)cc21 (stereo not drawn) [Example 733, 3-[3-(aminomethyl)-2,3-dihydro-1-benzofuran-5-yl]-2-(1H-tetrazol-5-yl)-6-(trifluoromethyl)benzenesulfon-amide] | 25 µM | 6.25 µM | 12.5 µM | 33.5 nM | 34.3 nM | 1.47 nM | 
NCCc1cccc(-c2ccc(C(F)(F)F)c(S(N)(=O)=O)c2-c2nnn[nH]2)c1 [Example 734, 3′-(2-aminoethyl)-2-(1H-tetraozl-5-yl)-4-(trifluoromethyl)biphenyl-3-sulfonamide] | 25 µM | 12.5 µM | 12.5 µM | 31.4 nM | 34.4 nM | 3.27 nM | 
NCCCc1ccc(-c2ccc(C(F)(F)F)c(S(N)(=O)=O)c2-c2nnn[nH]2)cc1 [Example 735, 4′-(3-aminopropyl)-2-(1H-tetrazol-5-yl)-4-(trifluoromethyl)biphenyl-3-sulfonamide] | 3.125 µM | 6.25 µM | 3.125 µM | 3.03 nM | 1.7 nM | 0.388 nM | 
NCCS(=O)(=O)c1ccc(-c2ccc(C(F)(F)F)c(S(N)(=O)=O)c2-c2nnn[nH]2)cc1 [Example 736, 4′-[(2-aminoethyl)sulfonyl]-2-(1H-tetrazol-5-yl)-4-(trifluoromethyl)biphenyl-3-sulfonamide] | 6.25 µM | 6.25 µM | 6.25 µM | 3.23 nM | 3.23 nM | 1.59 nM | 
NS(=O)(=O)Cc1cccc(-c2ccc(C(F)(F)F)c(S(N)(=O)=O)c2-c2nnn[nH]2)c1 [Example 737, 3′-(sulfamoylmethyl)-2-(1H-tetrazol-5-yl)-4-(trifluoromethyl)biphenyl-3-sulfonamide] | 3.125 µM | 25 µM | 6.25 µM | 4.95 nM | 3.02 nM |  | 4.29 nM
NS(=O)(=O)c1c(C(F)(F)F)ccc(-c2ccc(C(O)C3CCNCC3)cc2)c1-c1nnn[nH]1 (stereo not drawn) [Example 738, 4′-[hydroxy(piperidin-4-yl)methyl]-2-(1H-tetrazol-5-yl)-4-(trifluoromethyl)biphenyl-3-sulfonamide] | 6.25 µM | 50 µM | 3.125 µM | 1.28 nM | 2.28 nM |  | 3.41 nM
NS(=O)(=O)c1c(C(F)(F)F)ccc(-c2cccc(N3CCCC(O)C3)c2)c1-c1nnn[nH]1 (stereo not drawn) [Example 739, 3′-(3-hydroxypiperidin-1-yl)-2-(1H-tetrazol-5-yl)-4-(trifluoromethyl)biphenyl-3-sulfonamide] | 25 µM | >200 µM | 25 µM | 3.84 nM | 6.82 nM | 2.77 nM | 
NS(=O)(=O)c1c(C(F)(F)F)ccc(-c2ccc(N3CCC(O)CC3)cc2)c1-c1nnn[nH]1 [Example 740, 4′-(4-hydroxypiperidin-1-yl)-2-(1H-tetrazol-5-yl)-4-(trifluoromethyl)biphenyl-3-sulfonamide] | 6.25 µM | 50 µM | 6.25 µM | 0.229 nM | 0.456 nM | 1.15 nM | 
NS(=O)(=O)c1c(C(F)(F)F)ccc(-c2cccc(N3CCC(O)CC3)c2)c1-c1nnn[nH]1 [Example 741, 3′-(4-hydroxypiperidin-1-yl)-2-(1H-tetrazol-5-yl)-4-(trifluoromethyl)biphenyl-3-sulfonamide] | 25 µM | >200 µM | 25 µM | 4.65 nM | 6.12 nM | 2.74 nM | 
NS(=O)(=O)c1c(C(F)(F)F)ccc(-c2ccc(S(=O)(=O)CCO)cc2)c1-c1nnn[nH]1 [Example 742, 4′-[(2-hydroxyethyl)sulfonyl]-2-(1H-tetrazol-5-yl)-4-(trifluoromethyl)biphenyl-3-sulfonamide] | 12.5 µM | 25 µM | 12.5 µM | 2.01 nM | 1.84 nM | 0.657 nM | 
